Experimental data from ChEMBL document CHEMBL1201862, “PubChem BioAssay data set” (2004).
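Where inhibition never reached the appropriate level, the endpoint shown equals the highest concentration tested. Otherwise, values were interpolated linearly from a five-concentration, 48-hour dose response in 96-well plates. GI50 = concentration required for 50% inhibition of growth.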 The source made the active and inactive calls. Rule as the data show it: active = GI50 up to about 1.1 µM and inactive = higher.

What was measured:
Assay in all cases: DTP human tumour cell line panel, 48 h
PC-3 = tested on: PC-3
UACC-257 = tested on: UACC-257
MOLT-4 = tested on: MOLT-4
M14 = tested on: M14
SW-620 = tested on: SW-620
IGROV-1 = tested on: IGROV-1
UO-31 = tested on: UO-31
OVCAR-8 = tested on: OVCAR-8
DU-145 = tested on: DU-145
HCT-15 = tested on: HCT-15
CAKI-1 = tested on: CAKI-1
MDA-MB-435 = tested on: MDA-MB-435
SF-295 = tested on: SF-295
EKVX = tested on: EKVX
UACC-62 = tested on: UACC-62
SNB-19 = tested on: SNB-19
U-251 = tested on: U-251
COLO 205 = tested on: COLO 205
T47D = tested on: T47D
SK-MEL-2 = tested on: SK-MEL-2

SMILES	GI50 (PC-3)	GI50 (UACC-257)	GI50 (MOLT-4)	GI50 (M14)	GI50 (SW-620)	GI50 (IGROV-1)	GI50 (UO-31)	GI50 (OVCAR-8)	GI50 (DU-145)	GI50 (HCT-15)	GI50 (CAKI-1)	GI50 (MDA-MB-435)	GI50 (SF-295)	GI50 (EKVX)	GI50 (UACC-62)	GI50 (SNB-19)	GI50 (U-251)	GI50 (COLO 205)	GI50 (T47D)	GI50 (SK-MEL-2)
CCOC(=O)NC(Nc1ccc(S(=O)(=O)Nc2ccc(OC)nn2)cc1)(C(F)(F)F)C(F)(F)F	21.3 µM (inactive)	33.1 µM (inactive)	15.8 µM (inactive)	18 µM (inactive)	44.1 µM (inactive)	22.8 µM (inactive)	> 100 µM (inactive)	38.2 µM (inactive)	43.5 µM (inactive)	49.1 µM	> 100 µM (inactive)	14.5 µM (inactive)	37 µM (inactive)	37 µM (inactive)	45 µM (inactive)	43.2 µM (inactive)	17.9 µM (inactive)	21.9 µM (inactive)	> 100 µM (inactive)	
O=C(O)C1(Cc2ccccc2)Cc2ccccc2C1	> 100 µM (inactive)	> 100 µM (inactive)	> 100 µM (inactive)	> 100 µM (inactive)	> 100 µM (inactive)	> 100 µM (inactive)	> 100 µM (inactive)	> 100 µM (inactive)	> 100 µM (inactive)	> 100 µM		> 100 µM (inactive)	> 100 µM (inactive)	> 100 µM (inactive)	> 100 µM (inactive)	> 100 µM (inactive)	> 100 µM (inactive)	> 100 µM (inactive)	> 100 µM (inactive)	> 100 µM (inactive)
O=C(c1ccco1)N(Cc1cccnc1)C(=S)N(Cc1cccnc1)C(=O)c1ccco1	6.19 µM (inactive)	14 µM (inactive)	11 µM (inactive)	12.9 µM (inactive)	5 µM (inactive)		15 µM (inactive)	19.4 µM (inactive)	19.5 µM (inactive)	13 µM	19.9 µM (inactive)	11.6 µM (inactive)	30.6 µM (inactive)	19.8 µM (inactive)	15.2 µM (inactive)	30.8 µM (inactive)	16.3 µM (inactive)	4.02 µM (inactive)	24.5 µM (inactive)	12.5 µM (inactive)
COc1cccc2c1OCC1Cc3ccccc3OC21 (stereo not drawn)	34.9 µM (inactive)	24.4 µM (inactive)	28.8 µM (inactive)	44 µM (inactive)	41.8 µM (inactive)	> 100 µM (inactive)	35.2 µM (inactive)	44.9 µM (inactive)	49.8 µM (inactive)	43 µM	61.4 µM (inactive)	24.7 µM (inactive)	36.6 µM (inactive)	73.3 µM (inactive)	45.4 µM (inactive)		43.9 µM (inactive)	32.2 µM (inactive)	35.2 µM (inactive)	35.4 µM (inactive)
Cc1oc(N)c(S(=O)(=O)c2ccc(Cl)cc2)c1C	23.7 µM (inactive)	40.2 µM (inactive)	47.3 µM (inactive)	29.6 µM (inactive)	> 100 µM (inactive)	85.5 µM (inactive)	37 µM (inactive)	50.5 µM (inactive)	> 100 µM (inactive)	34 µM		55.3 µM (inactive)	39.5 µM (inactive)	45 µM (inactive)	37.9 µM (inactive)	> 100 µM (inactive)	> 100 µM (inactive)	> 10 µM (inactive)	31.2 µM (inactive)	28 µM (inactive)
CCC(C)C(=O)OC1C(=O)OC2CC3C(C)=CC(=O)C(O)C3(C)C3C4(O)OCC23C1C(C)C4O (stereo not drawn)	< 0.0199 µM (active)	0.0223 µM (active)		< 0.0146 µM (active)	0.0136 µM (active)	< 0.01 µM (active)	0.0324 µM (active)	< 0.01 µM (active)	< 0.019 µM (active)	< 0.0185 µM	0.115 µM (active)	< 0.0124 µM (active)	< 0.0204 µM (active)	0.264 µM (active)	< 0.0184 µM (active)	< 0.0152 µM (active)	< 0.0107 µM (active)	0.205 µM (active)	< 0.0166 µM (active)	< 0.0292 µM (active)
CCOC(=O)/C(=C\c1c[nH]c2ccccc12)P(=O)(OCC)OCC	17.4 µM (inactive)	45.3 µM (inactive)	55.1 µM (inactive)	39.6 µM (inactive)	45.7 µM (inactive)	39 µM (inactive)		22.3 µM (inactive)	46.1 µM (inactive)	27.7 µM	> 100 µM (inactive)	40.9 µM (inactive)	39.9 µM (inactive)	59.8 µM (inactive)	32.9 µM (inactive)	62.7 µM (inactive)	33.8 µM (inactive)	20.7 µM (inactive)	43.8 µM (inactive)	
N#CCCN(CCCN(C(=O)N(c1ccccc1)c1ccccc1)c1ccccc1)C(=O)Nc1ccccc1	18.7 µM (inactive)	74 µM (inactive)	11.5 µM (inactive)	> 100 µM (inactive)	> 100 µM (inactive)		67 µM (inactive)	21.5 µM (inactive)	> 100 µM (inactive)	> 100 µM	> 100 µM (inactive)	> 100 µM (inactive)	76.6 µM (inactive)	35.6 µM (inactive)	> 100 µM (inactive)	> 100 µM (inactive)	92 µM (inactive)	> 10 µM (inactive)	64.9 µM (inactive)	> 100 µM (inactive)
C[C@@H]1C[C@@H](O)[C@@]2(O)C13CC(=O)OC(C3)[C@@H](C)[C@@]2(C)CO (stereo partly drawn)	> 100 µM (inactive)	> 100 µM (inactive)	> 100 µM (inactive)	> 100 µM (inactive)	> 100 µM (inactive)	> 100 µM (inactive)	> 100 µM (inactive)	> 100 µM (inactive)	> 100 µM (inactive)	> 100 µM		> 100 µM (inactive)	> 100 µM (inactive)	> 100 µM (inactive)	> 100 µM (inactive)	> 100 µM (inactive)	> 100 µM (inactive)	> 100 µM (inactive)	> 100 µM (inactive)	> 100 µM (inactive)
C=CCN(CCN(CC=C)S(=O)(=O)c1ccc(C)cc1)S(=O)(=O)c1ccc(C)cc1	> 100 µM (inactive)	> 100 µM (inactive)	> 100 µM (inactive)	> 100 µM (inactive)	> 100 µM (inactive)		> 100 µM (inactive)	> 100 µM (inactive)	> 100 µM (inactive)	> 100 µM		> 100 µM (inactive)	> 100 µM (inactive)			> 100 µM (inactive)	> 100 µM (inactive)	> 100 µM (inactive)	> 100 µM (inactive)	
COC(=O)c1cn(CCCC(=O)O)nn1	> 100 µM (inactive)	> 100 µM (inactive)	> 100 µM (inactive)		> 100 µM (inactive)	> 100 µM (inactive)	> 100 µM (inactive)	> 100 µM (inactive)	> 100 µM (inactive)	> 100 µM	> 100 µM (inactive)	> 100 µM (inactive)	> 100 µM (inactive)	> 100 µM (inactive)	> 100 µM (inactive)	> 100 µM (inactive)	> 100 µM (inactive)	> 100 µM (inactive)	> 100 µM (inactive)	> 100 µM (inactive)
CCOC(=O)NC(Nc1cc(Cl)ccc1OC)(C(F)(F)F)C(F)(F)F		> 100 µM (inactive)	> 100 µM (inactive)	> 100 µM (inactive)	> 100 µM (inactive)	> 100 µM (inactive)	30.1 µM (inactive)		> 100 µM (inactive)	> 100 µM	> 100 µM (inactive)	> 100 µM (inactive)		> 100 µM (inactive)	> 100 µM (inactive)	> 100 µM (inactive)	> 100 µM (inactive)		> 100 µM (inactive)	> 100 µM (inactive)
C[C@H]1SC(c2ccc(Cl)cc2Cl)N(NC(=O)c2ccncc2)C1=O (stereo partly drawn)	15.1 µM (inactive)		> 10 µM (inactive)	21.8 µM (inactive)		41.2 µM (inactive)	25.3 µM (inactive)	49.9 µM (inactive)	38.1 µM (inactive)	42 µM	> 100 µM (inactive)	23.9 µM (inactive)	49.1 µM (inactive)	31.1 µM (inactive)	26.2 µM (inactive)	43.2 µM (inactive)	40.6 µM (inactive)	37.7 µM (inactive)	37.1 µM (inactive)	24.3 µM (inactive)
S=C1SC(=N\c2ccccc2)/C(=N/c2ccccc2)N1c1ccc2ccccc2c1	> 100 µM (inactive)			> 100 µM (inactive)		> 100 µM (inactive)	> 100 µM (inactive)	> 100 µM (inactive)	> 100 µM (inactive)	93.3 µM	> 100 µM (inactive)	> 100 µM (inactive)	> 100 µM (inactive)		> 100 µM (inactive)	> 100 µM (inactive)	> 100 µM (inactive)	> 100 µM (inactive)	> 100 µM (inactive)	> 100 µM (inactive)
CCOC(=O)c1[nH]cc(C)c1-c1ccn(-c2ccccc2)c1	30.6 µM (inactive)	35.3 µM (inactive)	18.3 µM (inactive)	48.2 µM (inactive)	80.4 µM (inactive)	14.9 µM (inactive)	25.8 µM (inactive)	38.3 µM (inactive)	> 100 µM (inactive)	54.5 µM	> 100 µM (inactive)	41.9 µM (inactive)	56.4 µM (inactive)	27 µM (inactive)	36.8 µM (inactive)		49.4 µM (inactive)	51.9 µM (inactive)	35 µM (inactive)	61.5 µM (inactive)
